# Measurements reported in patent US20240148821A1, “PHARMACEUTICAL USE OF CYCLIC PEPTIDE COMPOUND” (CHUGAI SEIYAKU KABUSHIKI KAISHA, priority 2021, published 2024).
# Numbered stars: 1 amine (or outer) side, 2 acyl side, 3 side chain; on linkers, the order of the positions; unused ones are H or OH. Bridge positions count the residues as written; N and C are the ends. Square brackets hold non-standard residues; d marks the D form. Peptide text beside a SMILES is read from it. * marks the point of attachment. hPhe(3-Cl-4-CF3) = N[C@@H](CCc1ccc(C(F)(F)F)c(Cl)c1)C(=O)O; X52 = CN([C@@H](Cc1ccccc1OC(F)(F)F)C(=O)[*:2])[*:1]; NMePhe(2-CF3) = CN[C@@H](Cc1ccccc1C(F)(F)F)C(=O)O; NMePhe(3-Br) = CN[C@@H](Cc1cccc(Br)c1)C(=O)O; NMePhe(3-Cl) = CN[C@@H](Cc1cccc(Cl)c1)C(=O)O; NMePhe(2-Cl) = CN[C@@H](Cc1ccccc1Cl)C(=O)O; NMePhe(2-Me) = CN[C@@H](Cc1ccccc1C)C(=O)O; NMePhe(2-F) = CN[C@@H](Cc1ccccc1F)C(=O)O; NMehPhe = CN[C@@H](CCc1ccccc1)C(=O)O; NMeCha = CN[C@@H](CC1CCCCC1)C(=O)O; NMehLeu = CN[C@@H](CCC(C)C)C(=O)O; NMeF = CN[C@@H](Cc1ccccc1)C(=O)O; NMeD = CN[C@@H](CC(=O)O)C(=O)O; NMeL = CN[C@@H](CC(C)C)C(=O)O; NMeV = CN[C@H](C(=O)O)C(C)C; d(β3hA) = C[C@@H](N)CC(=O)O; NMeA = CN[C@@H](C)C(=O)O; Piperidide = C1CCN(*)CC1; Ac5c = NC1(C(=O)O)CCCC1; Aze = O=C(O)[C@@H]1CCN1; Sar = CNCC(=O)O
# Test system: Human pancreatic cancer cell line AsPC-1 (G12D mutation Kras)
# Experiment: AsPC-1 cell growth inhibition (AsPC-1 CGI)
# Assay type: cell-based
# Conditions: read-out: AsPC-1 cell growth inhibition, 50% growth inhibitory concentration (IC50 value); 96 hours, CellTiter-Glo, values classified in ranges
# Procedure: Test compounds were serially dilated with dimethyl sulfoxide, and 200 nL was then dispensed to a U-bottom 96-well plate using Labcyte Echo. […] The cell suspension was dispensed to a. plate containing a test compound at 100 μL per well and incubated at 37° C. in a 5% carbon dioxide gas incubator. 96 hours later, 80 μL of CellTiter-Glo (Promega) was added to each well and fluorescence was measured.
row,Structure (SMILES),IC50
1,CC[C@H](C)[C@@H]1NC(=O)[C@H](CC(C)C)N(C)C(=O)C[C@@H](C)NC(=O)[C@H](C(C)C)N(C)C(=O)C2(CCCC2)NC(=O)[C@@H]2CCCN2C(=O)[C@H](CCc2ccc(C(F)(F)F)c(Cl)c2)NC(=O)CN(C)C(=O)[C@H](Cc2ccccc2F)N(C)C(=O)CN(C)C(=O)CN(C)C1=O [Compound 1585] (cyclo([Ac5c][NMeV][d(β3hA)][NMeL]I[Sar][Sar][NMePhe(2-F)][Sar][hPhe(3-Cl-4-CF3)]P)),> 500 nM
2,CC[C@H](C)[C@@H]1NC(=O)[C@H](CC(C)C)N(C)C(=O)C[C@@H](C)NC(=O)[C@H](C(C)C)N(C)C(=O)C2(CCCC2)NC(=O)[C@@H]2CCCN2C(=O)[C@H](CCc2ccc(C(F)(F)F)c(Cl)c2)NC(=O)CN(C)C(=O)[C@H](Cc2cccc(Br)c2)N(C)C(=O)CN(C)C(=O)CN(C)C1=O [Compound 1587] (cyclo([Ac5c][NMeV][d(β3hA)][NMeL]I[Sar][Sar][NMePhe(3-Br)][Sar][hPhe(3-Cl-4-CF3)]P)),> 500 nM
3,CC[C@H](C)[C@@H]1NC(=O)[C@H](CC(C)C)N(C)C(=O)C[C@@H](C)NC(=O)[C@H](C(C)C)N(C)C(=O)C2(CCCC2)NC(=O)[C@@H]2CCCN2C(=O)[C@H](CCc2ccc(C(F)(F)F)c(Cl)c2)NC(=O)CN(C)C(=O)[C@H](Cc2ccccc2Cl)N(C)C(=O)CN(C)C(=O)CN(C)C1=O [Compound 1591] (cyclo([Ac5c][NMeV][d(β3hA)][NMeL]I[Sar][Sar][NMePhe(2-Cl)][Sar][hPhe(3-Cl-4-CF3)]P)),> 500 nM
4,CC[C@H](C)[C@@H]1NC(=O)[C@H](C)N(C)C(=O)C[C@@H](C(=O)N2CCCCC2)N(C)C(=O)[C@H](C(C)C)N(C)C(=O)C2(CCCC2)NC(=O)[C@@H]2CCCN2C(=O)[C@H](CCc2ccc(C(F)(F)F)c(Cl)c2)NC(=O)CN(C)C(=O)[C@H](CC2CCCCC2)N(C)C(=O)[C@@H]2CCN2C(=O)[C@H](CCC(C)C)N(C)C1=O [Compound 1595] ([NMeA]I[NMehLeu][Aze][NMeCha][Sar][hPhe(3-Cl-4-CF3)]P[Ac5c][NMeV][NMeD]-Piperidide; lactam N-11),> 500 nM
5,CC[C@H](C)[C@@H]1NC(=O)[C@H](CC(C)C)N(C)C(=O)C[C@@H](C)NC(=O)[C@H](C(C)C)N(C)C(=O)C2(CCCC2)NC(=O)[C@@H]2CCCN2C(=O)[C@H](CCc2ccc(C(F)(F)F)c(Cl)c2)NC(=O)CN(C)C(=O)[C@H](Cc2ccccc2)N(C)C(=O)CN(C)C(=O)CN(C)C1=O [Compound 1606] (cyclo([Ac5c][NMeV][d(β3hA)][NMeL]I[Sar][Sar][NMeF][Sar][hPhe(3-Cl-4-CF3)]P)),> 500 nM
6,CC[C@H](C)[C@@H]1NC(=O)[C@H](CC(C)C)N(C)C(=O)C[C@@H](C)NC(=O)[C@H](C(C)C)N(C)C(=O)C2(CCCC2)NC(=O)[C@@H]2CCCN2C(=O)[C@H](CCc2ccc(C(F)(F)F)c(Cl)c2)NC(=O)CN(C)C(=O)[C@H](Cc2ccccc2C(F)(F)F)N(C)C(=O)CN(C)C(=O)CN(C)C1=O [Compound 1613] (cyclo([Ac5c][NMeV][d(β3hA)][NMeL]I[Sar][Sar][NMePhe(2-CF3)][Sar][hPhe(3-Cl-4-CF3)]P)),> 500 nM
7,CC[C@H](C)[C@@H]1NC(=O)[C@H](CC(C)C)N(C)C(=O)C[C@@H](C)NC(=O)[C@H](C(C)C)N(C)C(=O)C2(CCCC2)NC(=O)[C@@H]2CCCN2C(=O)[C@H](CCc2ccc(C(F)(F)F)c(Cl)c2)NC(=O)CN(C)C(=O)[C@H](Cc2ccccc2C)N(C)C(=O)CN(C)C(=O)CN(C)C1=O [Compound 1614] (cyclo([Ac5c][NMeV][d(β3hA)][NMeL]I[Sar][Sar][NMePhe(2-Me)][Sar][hPhe(3-Cl-4-CF3)]P)),> 500 nM
8,CC[C@H](C)[C@@H]1NC(=O)[C@H](CC(C)C)N(C)C(=O)C[C@@H](C)NC(=O)[C@H](C(C)C)N(C)C(=O)C2(CCCC2)NC(=O)[C@@H]2CCCN2C(=O)[C@H](CCc2ccc(C(F)(F)F)c(Cl)c2)NC(=O)CN(C)C(=O)[C@H](Cc2cccc(Cl)c2)N(C)C(=O)CN(C)C(=O)CN(C)C1=O [Compound 1623] (cyclo([Ac5c][NMeV][d(β3hA)][NMeL]I[Sar][Sar][NMePhe(3-Cl)][Sar][hPhe(3-Cl-4-CF3)]P)),> 500 nM
9,CC[C@H](C)[C@@H]1NC(=O)[C@H](CC(C)C)N(C)C(=O)C[C@@H](C)NC(=O)[C@H](C(C)C)N(C)C(=O)C2(CCCC2)NC(=O)[C@@H]2CCCN2C(=O)[C@H](CCc2ccc(C(F)(F)F)c(Cl)c2)NC(=O)CN(C)C(=O)[C@H](CCc2ccccc2)N(C)C(=O)CN(C)C(=O)CN(C)C1=O [Compound 1627] (cyclo([Ac5c][NMeV][d(β3hA)][NMeL]I[Sar][Sar][NMehPhe][Sar][hPhe(3-Cl-4-CF3)]P)),> 500 nM
10,CC[C@H](C)[C@@H]1NC(=O)[C@H](CC(C)C)N(C)C(=O)C[C@@H](C)NC(=O)[C@H](C(C)C)N(C)C(=O)C2(CCCC2)NC(=O)[C@@H]2CCCN2C(=O)[C@H](CCc2ccc(C(F)(F)F)c(Cl)c2)NC(=O)CN(C)C(=O)[C@H](Cc2ccccc2OC(F)(F)F)N(C)C(=O)CN(C)C(=O)CN(C)C1=O [Compound 1635] (cyclo([Ac5c][NMeV][d(β3hA)][NMeL]I[Sar][Sar][X52][Sar][hPhe(3-Cl-4-CF3)]P)),> 500 nM
